Results from patent US20150126467A1, “USE OF ALGINATE OLIGOMERS TO ENHANCE THE EFFECTS OF ANTIFUNGAL AGENTS” (AlgiIPharma AS, priority 2011, published 2015).

Key:
Format in all cases: cell-based
[1] = test system: C. albicans CCUG 39343; assay: Robotic MIC assay, Candida strains (Example 2); settings: 48 h, Mueller-Hinton broth
Protocol: (§1) A robotic MIC Assay was performed as follows. OligoG CF-5/20 were dissolved in medium (Mueller-Hinton broth or M19 broth depending on experiment) to 1.25 times of the desired assay concentrations (2, 6 and 10%). The antifungal agents under test were dissolved in medium without OligoG CF-5/20 and in medium with OligoG CF-5/20 at a concentration of 1.25 times the highest desired assay concentrations. For experiments where the effect of adding different concentrations of Na^+ was investigated, NaCl was dissolved in medium to the desired concentrations (10, 30 and 50 mM).
(§2) Two-fold serial dilutions of antifungal agents were made in medium with different concentrations of OligoG CF-5/20, and the solutions were placed in four parallel wells in Nunc 384-well micro plates (30 μl per well in Nunc 242757 microplates). A group of 8 wells with no addition of antifungal agents for each OligoG CF-5/20 concentration was included on each microplate as growth reference. To each well in the 384-well assay plates was added 7.5 μl of medium inoculated with a frozen stock culture of Candida albicans (strain CCUG 39343).
(§3) The micro plates were placed in plastic bags and incubated without shaking at 34° C. The optical density at 600 nm in the microwells was measured after approximately 13, 18, 24 and 34 hours of incubation, and the relative growth yield in each well was calculated based on the growth in the reference groups.
(§4) The robotic assay described in Example 1 was employed in this Example. Strains were grown in Mueller-Hinton broth (LAB114 from Lab M Limited) and MIC values (μg ml-1) were determined for each antifungal after incubation for 48 h in the presence of 0, 2, 6 and 10% OligoG CF-5/20 G-fragments. […] OligoG CF-5/20 G-fragments were provided by AlgiPharma AS, Norway.
(§5) Candida strains used were as follows: • C. albicans CCUG 39343 (strain from culture collection) • C. parapsillosis ATCC 22019T (strain from culture collection) • C. krusei 141/03 (candidosis) • C. krusei 249/03(2) (ulceration) • C. lusitaniae 994/01(2) (candidosis) • C. tropicalis 12 (vaginal) • C. tropicalis 75 (vaginal) • C. tropicalis 519468 (urinary) • C. tropicalis 544123 (urinary) • C. tropicalis 250/03 (candidosis) • C. tropicalis AG1 (oral) • C. tropicalis T2.2 (oral)

[2] = test system: C. tropicalis 519468 (urinary); assay: Robotic MIC assay, Candida strains (Example 2); settings: 48 h, Mueller-Hinton broth
Protocol: as §1, §2, §3, §4, §5

[3] = test system: C. krusei 249/03(2) (ulceration); assay: Robotic MIC assay, Candida strains (Example 2); settings: 48 h, Mueller-Hinton broth
Protocol: as §1, §2, §3, §4, §5

[4] = test system: C. tropicalis 75 (vaginal); assay: Robotic MIC assay, Candida strains (Example 2); settings: 48 h, Mueller-Hinton broth
Protocol: as §1, §2, §3, §4, §5

[5] = test system: C. tropicalis 250/03 (candidosis); assay: Robotic MIC assay, Candida strains (Example 2); settings: C. tropicalis 250/03 Candiosis, 48 h, Mueller-Hinton broth
Protocol: as §1, §2, §3, §4, §5

[6] = test system: C. tropicalis AG1 (oral); assay: Robotic MIC assay, Candida strains (Example 2); settings: 48 h, Mueller-Hinton broth
Protocol: as §1, §2, §3, §4, §5

[7] = test system: C. lusitaniae 994/01(2) (candidosis); assay: Robotic MIC assay, Candida strains (Example 2); settings: 48 h, Mueller-Hinton broth
Protocol: as §1, §2, §3, §4, §5

[8] = test system: C. krusei 141/03 (candidosis); assay: Robotic MIC assay, Candida strains (Example 2); settings: 48 h, Mueller-Hinton broth
Protocol: as §1, §2, §3, §4, §5

[9] = test system: C. tropicalis T2.2 (oral); assay: Robotic MIC assay, Candida strains (Example 2); settings: 48 h, Mueller-Hinton broth
Protocol: as §1, §2, §3, §4, §5

[10] = test system: C. tropicalis 544123 (urinary); assay: Robotic MIC assay, Candida strains (Example 2); settings: 48 h, Mueller-Hinton broth
Protocol: as §1, §2, §3, §4, §5

[11] = test system: C. tropicalis 12 (vaginal); assay: Robotic MIC assay, Candida strains (Example 2); settings: 48 h, Mueller-Hinton broth
Protocol: as §1, §2, §3, §4, §5

[12] = test system: Aspergillus fumigatus CCUG 17460; assay: Robotic MIC assay, Aspergillus (Example 4); settings: A. fumigatus CCUG 17460, 48 hours, Mueller-Hinton broth
Protocol: Aspergillus sp. was grown at 30° C. for 96 h on YM-agar. Spores and aerial mycelium was cut out from the agar, suspended in 1 ml YM-broth and dispersed with glass beads (1 mm) in a mini bead beater for 2 min. Glycerol was added to the suspension to 10% and frozen at −80° C.
Each batch of frozen stock culture was then characterized in separate growth experiments using Mueller-Hinton broth to determine the minimum amount of inoculum giving satisfactory growth after 48 h under the conditions relevant for the MIC assay. This inoculation procedure is used in order to reduce day to day variation in bioassays.
Robotic minimum inhibitory concentration (MIC) assay was performed as follows. OligoG CF-5/20 was dissolved in medium (Mueller-Hinton broth) to 1.25 times of the desired assay concentrations (2, 6 and 10%). […].
Two-fold serial dilutions of antifungal agents were made in medium with different concentrations of OligoG CF-5/20, and the solutions were placed in four parallel wells in Nunc 384-well micro plates (30 μl per well in Nunc 242757 microplates). A group of 8 wells with no addition of antifungal agents for each OligoG CF-5/20 concentration was included on each micro plate as growth reference. Each well in the 384-well assay plates was added 7.5 μl of the MH medium inoculated with frozen stock culture of the relevant strains.
The microplates were placed in plastic bags and incubated without shaking at 34° C. The optical density at 600 nm in the microwells was measured after approximately 24 and 48 hours of incubation. […]

## C[C@@H]1[C@H](O)[C@@H](C)/C=C/C=C/CC/C=C/C=C/C=C/C=C/C(O[C@H]2O[C@H](C)[C@@H](O)[C@H](N)[C@@H]2O)CC2O[C@](O)(CC(O)C(O)CCC(O)CC(O)CC(O)CC(=O)O[C@H]1C)CC(O)C2C(=O)O (stereo partly drawn) [Nystatin, nystatin]
[1]; 0% OligoG
  Minimum Inhibitory Concentration (MIC): 8 µg/mL
[1]; 2% OligoG
  Minimum Inhibitory Concentration (MIC): 8 µg/mL
[1]; 6% OligoG
  Minimum Inhibitory Concentration (MIC): 4 µg/mL
[1]; 10% OligoG
  Minimum Inhibitory Concentration (MIC): 2 µg/mL
[2]; 0% OligoG
  Minimum Inhibitory Concentration (MIC): 16 µg/mL
[2]; 2% OligoG
  Minimum Inhibitory Concentration (MIC): 8 µg/mL
[2]; 6% OligoG
  Minimum Inhibitory Concentration (MIC): 4 µg/mL
[2]; 10% OligoG
  Minimum Inhibitory Concentration (MIC): 2 µg/mL
[3]; 0% OligoG
  Minimum Inhibitory Concentration (MIC): 8 µg/mL
[3]; 2% OligoG
  Minimum Inhibitory Concentration (MIC): 8 µg/mL
[3]; 6% OligoG
  Minimum Inhibitory Concentration (MIC): 8 µg/mL
[3]; 10% OligoG
  Minimum Inhibitory Concentration (MIC): 4 µg/mL
[4]; 0% OligoG
  Minimum Inhibitory Concentration (MIC): 8 µg/mL
[4]; 2% OligoG
  Minimum Inhibitory Concentration (MIC): 8 µg/mL
[4]; 6% OligoG
  Minimum Inhibitory Concentration (MIC): 8 µg/mL
[4]; 10% OligoG
  Minimum Inhibitory Concentration (MIC): 2 µg/mL
[5]; 0% OligoG
  Minimum Inhibitory Concentration (MIC): 8 µg/mL
[5]; 2% OligoG
  Minimum Inhibitory Concentration (MIC): 4 µg/mL
[5]; 6% OligoG
  Minimum Inhibitory Concentration (MIC): 2 µg/mL
[5]; 10% OligoG
  Minimum Inhibitory Concentration (MIC): 1 µg/mL
[6]; 0% OligoG
  Minimum Inhibitory Concentration (MIC): 8 µg/mL
[6]; 2% OligoG
  Minimum Inhibitory Concentration (MIC): 8 µg/mL
[6]; 6% OligoG
  Minimum Inhibitory Concentration (MIC): 4 µg/mL
[6]; 10% OligoG
  Minimum Inhibitory Concentration (MIC): 2 µg/mL
[7]; 0% OligoG
  Minimum Inhibitory Concentration (MIC): 8 µg/mL
[7]; 2% OligoG
  Minimum Inhibitory Concentration (MIC): 8 µg/mL
[7]; 6% OligoG
  Minimum Inhibitory Concentration (MIC): 2 µg/mL
[7]; 10% OligoG
  Minimum Inhibitory Concentration (MIC): 1 µg/mL
[8]; 0% OligoG
  Minimum Inhibitory Concentration (MIC): 8 µg/mL
[8]; 2% OligoG
  Minimum Inhibitory Concentration (MIC): 4 µg/mL
[8]; 6% OligoG
  Minimum Inhibitory Concentration (MIC): 2 µg/mL
[8]; 10% OligoG
  Minimum Inhibitory Concentration (MIC): 2 µg/mL
[9]; 0% OligoG
  Minimum Inhibitory Concentration (MIC): 8 µg/mL
[9]; 2% OligoG
  Minimum Inhibitory Concentration (MIC): 8 µg/mL
[9]; 6% OligoG
  Minimum Inhibitory Concentration (MIC): 4 µg/mL
[9]; 10% OligoG
  Minimum Inhibitory Concentration (MIC): 2 µg/mL
[10]; 0% OligoG
  Minimum Inhibitory Concentration (MIC): 8 µg/mL
[10]; 2% OligoG
  Minimum Inhibitory Concentration (MIC): 8 µg/mL
[10]; 6% OligoG
  Minimum Inhibitory Concentration (MIC): 2 µg/mL
[10]; 10% OligoG
  Minimum Inhibitory Concentration (MIC): 2 µg/mL
[11]; 0% OligoG
  Minimum Inhibitory Concentration (MIC): 8 µg/mL
[11]; 2% OligoG
  Minimum Inhibitory Concentration (MIC): 8 µg/mL
[11]; 6% OligoG
  Minimum Inhibitory Concentration (MIC): 4 µg/mL
[11]; 10% OligoG
  Minimum Inhibitory Concentration (MIC): 4 µg/mL
[12]; 0% OligoG
  Minimum Inhibitory Concentration (MIC): 8 µg/mL
[12]; 2% OligoG
  Minimum Inhibitory Concentration (MIC): 8 µg/mL
[12]; 6% OligoG
  Minimum Inhibitory Concentration (MIC): 4 µg/mL
[12]; 10% OligoG
  Minimum Inhibitory Concentration (MIC): 2 µg/mL
